Test results from PubChem BioAssay (NCI).
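Results reflect a 48-hour exposure of cells in 96-well plates to compound at five concentrations. TGI is the concentration that stops growth completely.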

Experiments:
Assay in all cases: growth of human tumour cells (NCI), 48 h
SNB-75 CNS = tested on: SNB-75 CNS
HCC-2998 colon = tested on: HCC-2998 colon
ACHN renal = tested on: ACHN renal
RXF 393 renal = tested on: RXF 393 renal
IGROV1 ovarian = tested on: IGROV1 ovarian
CAKI-1 renal = tested on: CAKI-1 renal
UACC-62 melanoma = tested on: UACC-62 melanoma
MCF7 breast = tested on: MCF7 breast
SK-OV-3 ovarian = tested on: SK-OV-3 ovarian
PC-3 prostate = tested on: PC-3 prostate
MALME-3M melanoma = tested on: MALME-3M melanoma
EKVX NSCLC = tested on: EKVX NSCLC
OVCAR-8 ovarian = tested on: OVCAR-8 ovarian
HCT-116 colon = tested on: HCT-116 colon
OVCAR-5 ovarian = tested on: OVCAR-5 ovarian
UO-31 renal = tested on: UO-31 renal
SK-MEL-2 melanoma = tested on: SK-MEL-2 melanoma
SW-620 colon = tested on: SW-620 colon
HT29 colon = tested on: HT29 colon
OVCAR-4 ovarian = tested on: OVCAR-4 ovarian
SF-268 CNS = tested on: SF-268 CNS
LOX IMVI melanoma = tested on: LOX IMVI melanoma
MOLT-4 leukemia = tested on: MOLT-4 leukemia
SK-MEL-5 melanoma = tested on: SK-MEL-5 melanoma
COLO 205 colon = tested on: COLO 205 colon
K-562 leukemia = tested on: K-562 leukemia
786-0 renal = tested on: 786-0 renal
SN12C renal = tested on: SN12C renal
T-47D breast = tested on: T-47D breast
M14 melanoma = tested on: M14 melanoma
RPMI-8226 leukemia = tested on: RPMI-8226 leukemia
TK-10 renal = tested on: TK-10 renal
A549 NSCLC = tested on: A549 NSCLC
NCI-H460 lung = tested on: NCI-H460 lung
MDA-N = tested on: MDA-N
BT-549 breast = tested on: BT-549 breast
UACC-257 melanoma = tested on: UACC-257 melanoma
SF-539 CNS = tested on: SF-539 CNS
HS 578T breast = tested on: HS 578T breast
SR leukemia = tested on: SR leukemia
MDA-MB-231 breast = tested on: MDA-MB-231 breast
HCT-15 colon = tested on: HCT-15 colon
KM12 colon = tested on: KM12 colon
U251 CNS = tested on: U251 CNS
SK-MEL-28 melanoma = tested on: SK-MEL-28 melanoma
CCRF-CEM leukemia = tested on: CCRF-CEM leukemia
HL-60(TB) leukemia = tested on: HL-60(TB) leukemia
NCI-H23 lung = tested on: NCI-H23 lung
SNB-19 CNS = tested on: SNB-19 CNS
NCI/ADR-RES ovarian = tested on: NCI/ADR-RES ovarian
HOP-62 NSCLC = tested on: HOP-62 NSCLC
NCI-H522 lung = tested on: NCI-H522 lung
NCI-H226 lung = tested on: NCI-H226 lung
SF-295 CNS = tested on: SF-295 CNS
DU-145 prostate = tested on: DU-145 prostate
HOP-92 NSCLC = tested on: HOP-92 NSCLC
MDA-MB-435 = tested on: MDA-MB-435
OVCAR-3 ovarian = tested on: OVCAR-3 ovarian
A498 renal = tested on: A498 renal

## CC1(C)OC(C(C)(C)O)C(C(C)(C)O)O1 (centres undefined)
SNB-75 CNS
  TGI: > 100 µM
HCC-2998 colon
  TGI: > 100 µM
ACHN renal
  TGI: > 100 µM
RXF 393 renal
  TGI: > 100 µM
IGROV1 ovarian
  TGI: > 100 µM
CAKI-1 renal
  TGI: > 100 µM
UACC-62 melanoma
  TGI: > 100 µM
MCF7 breast
  TGI: > 100 µM
SK-OV-3 ovarian
  TGI: > 100 µM
PC-3 prostate
  TGI: > 100 µM
MALME-3M melanoma
  TGI: > 100 µM
EKVX NSCLC
  TGI: > 100 µM
OVCAR-8 ovarian
  TGI: > 100 µM
HCT-116 colon
  TGI: > 100 µM
OVCAR-5 ovarian
  TGI: > 100 µM
UO-31 renal
  TGI: > 100 µM
SK-MEL-2 melanoma
  TGI: > 100 µM
SW-620 colon
  TGI: > 100 µM
HT29 colon
  TGI: > 100 µM
OVCAR-4 ovarian
  TGI: > 100 µM
SF-268 CNS
  TGI: > 100 µM
LOX IMVI melanoma
  TGI: > 100 µM
MOLT-4 leukemia
  TGI: > 100 µM
SK-MEL-5 melanoma
  TGI: > 100 µM
COLO 205 colon
  TGI: > 100 µM
K-562 leukemia
  TGI: > 100 µM
786-0 renal
  TGI: > 100 µM
SN12C renal
  TGI: > 100 µM
T-47D breast
  TGI: > 100 µM
M14 melanoma
  TGI: > 100 µM
RPMI-8226 leukemia
  TGI: > 100 µM
TK-10 renal
  TGI: > 100 µM
A549 NSCLC
  TGI: > 100 µM
NCI-H460 lung
  TGI: > 100 µM
MDA-N
  TGI: > 100 µM
BT-549 breast
  TGI: > 100 µM
UACC-257 melanoma
  TGI: > 100 µM
SF-539 CNS
  TGI: > 100 µM
HS 578T breast
  TGI: > 100 µM
SR leukemia
  TGI: > 100 µM
MDA-MB-231 breast
  TGI: > 100 µM
HCT-15 colon
  TGI: > 100 µM
KM12 colon
  TGI: > 100 µM
U251 CNS
  TGI: > 100 µM
SK-MEL-28 melanoma
  TGI: > 100 µM
CCRF-CEM leukemia
  TGI: > 100 µM
HL-60(TB) leukemia
  TGI: > 100 µM
NCI-H23 lung
  TGI: > 100 µM
SNB-19 CNS
  TGI: > 100 µM
NCI/ADR-RES ovarian
  TGI: > 100 µM
HOP-62 NSCLC
  TGI: > 100 µM
NCI-H522 lung
  TGI: > 100 µM
NCI-H226 lung
  TGI: > 100 µM
SF-295 CNS
  TGI: > 100 µM
DU-145 prostate
  TGI: > 100 µM

## CCOc1cc(NC(C)=O)ccc1C(=O)NNS(=O)(=O)c1ccc(Cl)cc1Cl
SNB-75 CNS
  TGI: > 50 µM
HCC-2998 colon
  TGI: > 50 µM
ACHN renal
  TGI: > 50 µM
RXF 393 renal
  TGI: > 50 µM
IGROV1 ovarian
  TGI: > 50 µM
CAKI-1 renal
  TGI: > 50 µM
UACC-62 melanoma
  TGI: > 50 µM
MCF7 breast
  TGI: > 50 µM
SK-OV-3 ovarian
  TGI: > 50 µM
PC-3 prostate
  TGI: > 50 µM
MALME-3M melanoma
  TGI: > 50 µM
EKVX NSCLC
  TGI: > 50 µM
OVCAR-8 ovarian
  TGI: > 50 µM
HCT-116 colon
  TGI: > 50 µM
OVCAR-5 ovarian
  TGI: > 50 µM
HOP-92 NSCLC
  TGI: > 50 µM
UO-31 renal
  TGI: > 50 µM
SK-MEL-2 melanoma
  TGI: > 50 µM
SW-620 colon
  TGI: > 50 µM
HT29 colon
  TGI: > 50 µM
MDA-MB-435
  TGI: 45.1 µM
OVCAR-4 ovarian
  TGI: > 50 µM
SF-268 CNS
  TGI: > 50 µM
LOX IMVI melanoma
  TGI: > 50 µM
MOLT-4 leukemia
  TGI: 22 µM
SK-MEL-5 melanoma
  TGI: > 50 µM
COLO 205 colon
  TGI: > 50 µM
K-562 leukemia
  TGI: 21.4 µM
786-0 renal
  TGI: > 50 µM
SN12C renal
  TGI: > 50 µM
T-47D breast
  TGI: > 50 µM
OVCAR-3 ovarian
  TGI: > 50 µM
M14 melanoma
  TGI: > 50 µM
RPMI-8226 leukemia
  TGI: 26.6 µM
A549 NSCLC
  TGI: > 50 µM
NCI-H460 lung
  TGI: > 50 µM
MDA-N
  TGI: 23.1 µM
BT-549 breast
  TGI: > 50 µM
UACC-257 melanoma
  TGI: > 50 µM
SF-539 CNS
  TGI: > 50 µM
HS 578T breast
  TGI: > 50 µM
SR leukemia
  TGI: > 50 µM
HCT-15 colon
  TGI: > 50 µM
KM12 colon
  TGI: > 50 µM
SK-MEL-28 melanoma
  TGI: > 50 µM
CCRF-CEM leukemia
  TGI: > 50 µM
HL-60(TB) leukemia
  TGI: > 50 µM
NCI-H23 lung
  TGI: > 50 µM
SNB-19 CNS
  TGI: > 50 µM
A498 renal
  TGI: > 50 µM
NCI/ADR-RES ovarian
  TGI: > 50 µM
HOP-62 NSCLC
  TGI: > 50 µM
NCI-H522 lung
  TGI: > 50 µM
NCI-H226 lung
  TGI: > 50 µM
SF-295 CNS
  TGI: > 50 µM
DU-145 prostate
  TGI: > 50 µM

## CN(C)c1nc2nonc2nc1Nc1ccccc1
SNB-75 CNS
  TGI: > 100 µM
HCC-2998 colon
  TGI: > 100 µM
ACHN renal
  TGI: > 100 µM
RXF 393 renal
  TGI: > 100 µM
IGROV1 ovarian
  TGI: > 100 µM
UACC-62 melanoma
  TGI: > 100 µM
MCF7 breast
  TGI: > 100 µM
SK-OV-3 ovarian
  TGI: > 100 µM
PC-3 prostate
  TGI: > 100 µM
MALME-3M melanoma
  TGI: > 100 µM
EKVX NSCLC
  TGI: > 100 µM
OVCAR-8 ovarian
  TGI: > 100 µM
HCT-116 colon
  TGI: > 100 µM
OVCAR-5 ovarian
  TGI: > 100 µM
HOP-92 NSCLC
  TGI: > 100 µM
UO-31 renal
  TGI: > 100 µM
SK-MEL-2 melanoma
  TGI: > 100 µM
SW-620 colon
  TGI: > 100 µM
HT29 colon
  TGI: > 100 µM
SF-268 CNS
  TGI: > 100 µM
LOX IMVI melanoma
  TGI: > 100 µM
MOLT-4 leukemia
  TGI: > 100 µM
SK-MEL-5 melanoma
  TGI: > 100 µM
COLO 205 colon
  TGI: > 100 µM
K-562 leukemia
  TGI: > 100 µM
786-0 renal
  TGI: > 100 µM
SN12C renal
  TGI: > 100 µM
T-47D breast
  TGI: > 100 µM
M14 melanoma
  TGI: > 100 µM
RPMI-8226 leukemia
  TGI: > 100 µM
TK-10 renal
  TGI: > 100 µM
A549 NSCLC
  TGI: > 100 µM
NCI-H460 lung
  TGI: > 100 µM
MDA-N
  TGI: > 100 µM
BT-549 breast
  TGI: > 100 µM
UACC-257 melanoma
  TGI: > 100 µM
HS 578T breast
  TGI: > 100 µM
SR leukemia
  TGI: > 100 µM
MDA-MB-231 breast
  TGI: > 100 µM
HCT-15 colon
  TGI: > 100 µM
U251 CNS
  TGI: > 100 µM
SK-MEL-28 melanoma
  TGI: > 100 µM
CCRF-CEM leukemia
  TGI: > 100 µM
HL-60(TB) leukemia
  TGI: > 100 µM
NCI-H23 lung
  TGI: > 100 µM
SNB-19 CNS
  TGI: > 100 µM
A498 renal
  TGI: > 100 µM
NCI/ADR-RES ovarian
  TGI: > 100 µM
HOP-62 NSCLC
  TGI: > 100 µM
NCI-H522 lung
  TGI: > 100 µM
NCI-H226 lung
  TGI: > 100 µM
SF-295 CNS
  TGI: > 100 µM
DU-145 prostate
  TGI: > 100 µM
